The values below come from patent US5200412A, “Heterobicyclic containing benzene sulfonamides which are platelet activating factor antagonists” (British Bio-Technology Limited, priority 1990, dated 1993).

For one assay, the target named is T1, PAF receptor (Homo sapiens, UniProt P25105).
T1 construct: Platelet concentrates were obtained from a hospital blood bank; from tissue; host or cells: human platelets (hospital blood bank concentrates), lysed platelet membrane fraction
As to the kind of experiment: inhibition of 3H-PAF binding to human platelet plasma membrane. The following applies: human platelet membranes, 0.5 nM 3H-PAF, 1 hour incubation at 0° C., pH 7.0. The protocol: (§1) Compounds of general formula I inhibit PAF-induced functions in both the cellular and tissue levels by changing the PAF binding to its specific receptor site. The ability of compounds of general formula I to inhibit the binding of PAF to its specific receptor binding site on human platelet plasma membranes was measured according to Pharmacological Example 1. The ability of compounds of general formula I to reverse the hypotension caused by an infusion of PAF in rats was measured according to Pharmacology Example 2.
The inhibition of 3H-PAF binding to human platelet plasma membrane by compounds of general formula I was determined by isotopic labelling and filtration techniques. Platelet concentrates were obtained from a hospital blood bank. These platelet concentrates (500-2500 ml.) were centrifuged at 800 rpm for 10 minutes in a SORVALL RC3B centrifuge to remove the red blood cells present. (The word SORVALL is a trade mark ) The supernatant was subsequently centrifuged at 3,000 rpm in a SORVALL RC3B centrifuge to pellet the platelets present. The platelet rich pellets were resuspended in a minimum volume of buffer (150 mM NaCl, 10 mM Tris, 2 mM EDTA, pH 7.5) and layered onto Ficoll-Paque gradients, 9 ml platelet concentrate to 2 ml Ficoll, and centrifuged at 1,900 rpm for 15 minutes in a SORVALL RT6000 centrifuge. This step removes the residual red blood cells and other nonspecific material such as lymphocytes from the preparation. The platelets which form a band between the plasma and the Ficoll were removed, resuspended in the above buffer and centrifuged at 3,000 rpm for 10 minutes in a SORVALL RT6000 centrifuge. The pelleted platelets were resuspended in buffer (10 mM Tris, 5 mM MgCl2, 2 mM EDTA, pH 7.0), snap freezed in liquid N2 and allowed to thaw slowly at room temperature in order to lyse the platelets. The latter step was repeated at least 3 times to ensure proper lysis. The lysed platelets were centrifuged at 3,000 rpm for 10 minutes in a SORVALL RT6000 centrifuge and resuspended in buffer. The latter step was repeated twice in order to remove any cytoplasmic proteins which may hydrolyse the platelet activating factor (PAF) receptor The prepared platelet membranes may be stored at -70° C. After thawing the prepared membranes were centrifuged in a SORVALL RT6000 at 3,000 rpm for 10 minutes and resuspended in assay buffer.
The assay was conducted by preparing a series of Tris-buffered solutions of the selected antagonist of predetermined concentrations. Each of these solutions contained ^3 H-PAF (0.5 nM; 1-O-[^3 H]octadecyl-2-acetyl-sn-glycero-3-phosphoryl choline with a specific activity of 132 Ci/mmol), […], a known amount of the test antagonist, and a sufficient amount of Tris-buffer solution (10 mM Tris, 5 mM MgCl2, pH 7.0, 0.25% BSA) to make the final volume 1 ml. Incubation was initiated by the addition of 100 μg of the isolated membrane fraction to each of the above solutions at 0° C. Two control samples, one (Cl) which contained all the ingredients described above except the antagonist and the other (C2) contains Cl plus a 1000-fold excess of unlabelled PAF, were also prepared and incubated simultaneously with the test samples. After 1 hour incubation, each solution was filtered rapidly under vacuo through a WHATMAN GF/C glass fibre filter in order to separate unbound PAF from bound PAF. (The word WHATMAN is a trade mark.) The residue in each case was rapidly washed 4 times with 5 ml cold (4° C.) Tris-buffer solution. Each washed residue was dried under vacuum on a sampling manifold and placed into vials containing 20 ml of OPTIPHASE MP scintillation fluid and the radioactivity counted in a liquid scintillation counter. […]

A further assay has as its system PAF-induced hypotension. As to the kind of experiment: reversal of PAF-induced hypotension in the rat. Type of assay: in vivo, Male Sprague-Dawley rats. The following applies: iv, anaesthetised rats, i.v. bolus, PAF 100 ng/kg/min i.v. infusion, read-out: ED50 (50% reversal of the hypotensive PAF response). As to the method:
as §1
Male Sprague-Dawley rats (300-350 g) were anaesthetised with a mixture of sodium pentobarbitone, 22.5 mg/kg and thiopental 62.5 mg/kg. Through a midline incision in the neck, the trachea was cannulated and the animals, breathed spontaneously. A carotid artery was cannulated for the measurement of blood pressure and this signal was used to trigger a rate meter to measure heart rate. Both jugular veins were cannulated: one for the infusion of PAF and the other for the bolus administration of test compounds.
PAF, 100 ng/kg/min was infused i.v. until a sustained fall in mean blood pressure of 50 mmHg was achieved. […] Also presented in Table 2 is the result for a comparative example (N-cyclohexyl-N-methyl-4-(1H-imidazo[4,5-c]pyridylmethyl)benzamide. This compound (a PAF antagonist described in EP-A-0260613) is not within the scope of the invention.

In assay [1] the test system is endotoxin induced hypotension. Description: reversal of endotoxin induced hypotension in the rat. Type of assay: in vivo. Conditions: iv, read-out: ED50 (50% reversal of the endotoxin induced hypotension). The protocol:
Rats were anaesthetised with a mixture of sodium pentobarbitone, 22.5 mg/kg, and thiopental, 62.5 mg/kg. The animals breathed spontaneously, air enriched with oxygen, and a carotid artery was cannulated for the measurement of blood pressure and heart rate. […] Test compounds were administered i.v. via the other jugular vein as a bolus.

For assay [2], the system named is PAF-induced bronchoconstriction. Description: inhibition of PAF-induced bronchoconstriction in the guinea pig. The class given is in vivo, Male Dunkin-Hartley guinea-pigs. Conditions: 10 mg/kg p.o., 1 hour before PAF 40 ng/kg/min i.v. infusion. The protocol: The inhibition of PAF induced bronchoconstriction was measured in anaesthetised artificially ventilated guinea-pigs (450-500 g) using a modified version of the Konzett-Rossler technique (Konzett M and Rossler R, Naunym-Schmiedeb. Arch. Exp. Pathol. Pharmakol., 1940, 197, 71) Male Dunkin-Hartley guinea-pigs were anaesthetised with urethane, 1.6 g/kg. Through a midline neck incision, the trachea was cannulated and the animal ventilated with a constant tidal volume set between 5 and 15 ml, to give a tracheal inflation pressure of 15 mmHg at a rate of 40 per minute. A carotid artery was cannulated for the measurement of blood pressure and heart rate and both jugular veins were cannulated, one for the infusion of PAF and the other for the administration of test compounds. PAF, 40 ng/kg/min in saline with 0.25% bovine serum albumin, was infused i.v. to produced a 100% increase in tracheal inflation pressure, and bronchoconstrictor effects were determined. Test compounds were administered p.o. (10 mg/kg) 1 hour before the infusion of PAF was started whilst the animals were conscious.

T1 sequence (P25105 whole entry): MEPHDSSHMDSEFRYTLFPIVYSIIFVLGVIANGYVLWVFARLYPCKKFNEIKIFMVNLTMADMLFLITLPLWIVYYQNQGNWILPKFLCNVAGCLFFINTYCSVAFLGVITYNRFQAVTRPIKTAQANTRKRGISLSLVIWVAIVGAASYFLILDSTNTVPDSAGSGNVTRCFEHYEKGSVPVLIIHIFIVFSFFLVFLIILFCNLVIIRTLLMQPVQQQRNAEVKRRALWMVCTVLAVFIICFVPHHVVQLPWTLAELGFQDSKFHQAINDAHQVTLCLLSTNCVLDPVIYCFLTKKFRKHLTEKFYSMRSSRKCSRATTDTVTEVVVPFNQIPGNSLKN

At PAF receptor, `COC(=O)[C@H](CC(C)C)NS(=O)(=O)c1ccc(Cn2c(C)nc3cnccc32)cc1` [Example 32B, N-4-(1H-2-methylimidazo[4,5-c]pyridylmethyl)phenylsulphonyl-L-leucine methyl ester] yielded a concentration for half-maximal inhibition (IC50) of 8 nM. The ED50 turned out to be 2.1 µg/kg with PAF-induced hypotension and 15.5 µg/kg in assay [1].
For `CCOCCOC(=O)[C@H](CC(C)C)NS(=O)(=O)c1ccc(Cn2c(C)nc3ccncc32)cc1` [Example 42A, N-4-(3H-2-Methylimidazo[4,5-c]pyridylmethyl)phenylsulphonyl-L-leucine 2-ethoxyethyl ester], the 50% inhibitory concentration (IC50) on PAF receptor was 2 nM.
On the same count and under the same terms, under `CCOC(=O)[C@H](CC(C)C)NS(=O)(=O)c1ccc(Cn2c(C)nc3ccccc32)cc1` [Example 14, N-4-(1H-2-Methylbenzimidazolylmethyl)phenylsulphonyl-L-leucine ethyl ester] stands 15 nM.
For `CCOC(=O)[C@H](CC(C)C)NS(=O)(=O)c1ccc(Cn2c(C)nc3cnccc32)cc1` [Example 35B, N-4-(1H-2-methylimidazo[4,5-c]pyridylmethyl)phenylsulphonyl-L-leucine ethyl ester], on PAF receptor, the concentration for half-maximal inhibition (IC50) stood at 0.2 nM. The ED50 in assay [1] was 2.9 µg/kg.
`COC(=O)[C@H](COCc1ccccc1)NS(=O)(=O)c1ccc(Cn2c(C)nc3ccccc32)cc1` [Example 12, N-4-(1H-2-Methylbenzimidazolylmethyl)phenylsulphonyl-O-benzyl-L-serine methyl ester]: the median effective dose (ED50) in the assay on PAF-induced hypotension turned out to be 21 µg/kg.
The same measure, in the same setting: under `CN(C(=O)c1ccc(Cn2cnc3cnccc32)cc1)C1CCCCC1` [Comparative Example, N-Cyclohexyl-N-methyl-4-(1H-imidazo[4,5-c]pyridylmethyl)benzamide, reference compound] stands 150 µg/kg.
Molecule `CCOC(=O)[C@H](CC(C)C)N(C)S(=O)(=O)c1ccc(Cn2c(C)nc3cnccc32)cc1` [Example 53B, N-Methyl-N-4-(1H-2-methylimidazo[4,5-c]pyridylmethyl)phenylsulphonyl-L-leucine ethyl ester] yielded a half-maximal inhibitory concentration (IC50) on PAF receptor of 0.15 nM. Further, in the assay on PAF-induced hypotension, the median effective dose (ED50) was found to be 0.5 µg/kg. The “% Inhibition of PAF-induced bronchoconstriction” value (from here on “% Inhibition”) in assay [2] is 91%.
In the case of `CC[C@H](C)[C@H](NS(=O)(=O)c1ccc(Cn2c(C)nc3ccccc32)cc1)C(=O)OC` [Example 6, N-4-(1H-2-Methylbenzimidazolylmethyl)phenylsulphonyl-L-isoleucine methyl ester], the IC50 on PAF receptor amounted to 30 nM.
As for `C=CCN([C@@H](CC(C)C)C(=O)OCC)S(=O)(=O)c1ccc(Cn2c(C)nc3cnccc32)cc1` [60(B), N-Allyl-N-4-(1H-2-methylimidazo[4,5-c]pyridylmethyl)phenylsulphonyl-L-leucine ethyl ester], in assay [2], the “% Inhibition” value came out at 60%.
As to `COC(=O)[C@H](CC(C)C)NS(=O)(=O)c1ccc(Cn2c(C)nc3ccccc32)cc1` [Example 7, N-4-(1H-2-Methylbenzimidazolylmethyl)phenylsulphonyl-L-leucine methyl ester], the concentration for half-maximal inhibition (IC50) at PAF receptor was found to be 20 nM. Moreover, the 50% effective dose (ED50) in the assay on PAF-induced hypotension stood at 11.6 µg/kg.
As to `CCOC(=O)[C@H](CC(C)C)N(CC(=O)OC(C)(C)C)S(=O)(=O)c1ccc(Cn2c(C)nc3cnccc32)cc1` [69(B), N-t-butoxycarbonylmethyl-N-4-(1H-2-methylimidazo[4,5-c]pyridylmethyl)phenylsulphonyl-L-leucine ethyl ester], the “% Inhibition” value in assay [2] stood at 60%.
Regarding `Cc1nc2cnccc2n1Cc1ccc(S(=O)(=O)N(C)[C@@H](CC(C)C)C(=O)OC(C)C)cc1` [Example 56B, N-Methyl-N-4-(1H-2-methylimidazo[4,5-c]pyridylmethyl)phenylsulphonyl-L-leucine i-propyl ester], in the assay with PAF-induced hypotension, the 50% effective dose (ED50) turned out to be 0.6 µg/kg. Also, the “% Inhibition” value in assay [2] turned out to be 72%.
On PAF receptor, `CCCCOC(=O)[C@H](CC(C)C)N(C)S(=O)(=O)c1ccc(Cn2c(C)nc3cnccc32)cc1` [Example 57B, N-methyl-N-4-(1H-2-methylimidazo[4,5-c]pyridylmethyl)phenylsulphonyl-L-leucine n-butyl ester] registered an IC50 of 1 nM.
Still for that read-out and setting: then `Cc1nc2cnccc2n1Cc1ccc(S(=O)(=O)N[C@@H](CC(C)C)C(=O)OCCOCc2ccccc2)cc1` [Example 43B, N-4-(1H-2methylimidazo[4,5-c]pyridylmethyl)phenylsulphonyl-L-leucine 2-benzoxyethyl ester], with 1 nM; and `CCOC(=O)[C@H](CC(C)C)N(C)S(=O)(=O)c1ccc(Cn2c(C)nc3ccccc32)cc1` [Example 54, N-Methyl-N-4-(1H-2-methylbenzimidazolylmethyl)phenylsulphonyl-L-leucine ethyl ester], with 3 nM.

One may read the IC50 as the midpoint of a concentration-inhibition curve. The ED50 is the dose that gives a 50% effect, or the effect in half of the subjects.
